Experimental data: publication PMC10035947, “Development of novel anilinoquinazoline-based carboxylic acids as non-classical carbonic anhydrase IX and XII inhibitors” (Journal of Enzyme Inhibition and Medicinal Chemistry, 2023)
Where two headings read alike, the source gives them in different places.

Columns and labels:
MCF7 = experiment: NCI SRB assay; format: cell-based, human; conditions: for CC50: read-out: LC50 (the source's name)
786-0 = experiment: NCI SRB assay; format: cell-based, human; conditions: for CC50: read-out: LC50 (the source's name)
OVCAR-8 = experiment: NCI SRB assay; format: cell-based, human; conditions: for CC50: read-out: LC50 (the source's name)
SK-MEL-5 = experiment: NCI SRB assay; format: cell-based, human
A498 = experiment: NCI SRB assay; format: cell-based, human; conditions: for CC50: read-out: LC50 (the source's name)
K-562 = experiment: NCI SRB assay; format: cell-based, human; conditions: for CC50: read-out: LC50 (the source's name)
HCT-15 = experiment: NCI SRB assay; format: cell-based, human
A549/ATCC = experiment: NCI SRB assay; format: cell-based, human
MDA-MB-435 = experiment: NCI SRB assay; format: cell-based; conditions: for CC50: read-out: LC50 (the source's name)
hCA XII = target: T1, hCA XII (Homo sapiens, UniProt O43570); experiment: stopped flow CO2 hydrase assay; format: biochemical
T1 construct: made in house
T1 sequence (O43570 25-354): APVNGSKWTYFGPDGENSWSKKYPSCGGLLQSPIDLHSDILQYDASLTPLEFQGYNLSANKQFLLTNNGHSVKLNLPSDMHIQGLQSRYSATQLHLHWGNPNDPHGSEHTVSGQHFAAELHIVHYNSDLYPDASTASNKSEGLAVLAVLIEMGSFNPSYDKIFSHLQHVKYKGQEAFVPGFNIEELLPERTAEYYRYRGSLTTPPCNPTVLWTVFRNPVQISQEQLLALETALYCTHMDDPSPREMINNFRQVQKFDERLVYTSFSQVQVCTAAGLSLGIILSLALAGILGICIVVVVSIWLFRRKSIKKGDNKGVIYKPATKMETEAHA
Summary of the method: (§1)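 Recombinant enzymes assayed by stopped-flow CO2 hydration using 0.2 mM phenol red at 557 nm in 20 mM Hepes pH 7.5 with 20 mM Na2SO4, CO2 1.7–17 mM. Inhibitor and enzyme preincubated 15 min at room temperature.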

hCA I = target: T2, hCA I (Homo sapiens, UniProt P00915); experiment: stopped flow CO2 hydrase assay; format: biochemical; conditions: mean from 3 assays
T2 construct: made in house
T2 sequence (P00915 whole entry): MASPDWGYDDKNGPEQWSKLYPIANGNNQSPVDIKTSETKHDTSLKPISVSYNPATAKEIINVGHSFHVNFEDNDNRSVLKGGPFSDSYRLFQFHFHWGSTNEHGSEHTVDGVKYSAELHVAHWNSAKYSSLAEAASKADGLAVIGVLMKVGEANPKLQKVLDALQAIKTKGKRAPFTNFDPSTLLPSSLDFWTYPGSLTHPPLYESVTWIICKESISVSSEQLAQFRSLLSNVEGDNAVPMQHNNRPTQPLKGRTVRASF
Summary of the method: as §1

hCA IX = target: T3, hCA IX (Homo sapiens, UniProt Q16790); experiment: stopped flow CO2 hydrase assay; format: biochemical
T3 construct: made in house
Summary of the method: as §1

HT29 = experiment: NCI SRB assay; format: cell-based, human
NCI-H522 = experiment: NCI SRB assay; format: cell-based, human
IGROV1 = experiment: NCI SRB assay; format: cell-based, human
[1] = Homo sapiens, MCF7, MCF7, 5-dose
[2] = Homo sapiens, K562, K-562, 5-dose
[3] = Homo sapiens, HCT-15, HCT-15, 5-dose
[4] = Homo sapiens, HT-29, HT29, 5-dose
[5] = Homo sapiens, NCI-H522, NCI-H522, 5-dose

Cc1ccc(-c2nc(Nc3ccccc3C(=O)O)c3ccccc3n2)cc1 [6b, 2-((2-(p-Tolyl)quinazolin-4-yl)amino)benzoic acid]
GI50 (MCF7; [1]): 9.41 µM
CC50 (MCF7; [1]): > 100 µM
GI% (MCF7; MCF7, 10 μM): 92%
Growth Percent (MCF7; MCF7, 1.00E-5 Molar): 7.70%
GI50 (MCF7; MCF7, 5-dose): 9.4 µM
TGI (MCF7; MCF7, 5-dose): 89.9 µM
TGI (MCF7; MCF7, 5-dose, listed as D - 835857): 8.99E-5 Molar
CC50 (MCF7; MCF7, 5-dose): < 100 µM
GI% (786-0; 786-0, 10 μM): 81%
Growth Percent (786-0; 786-0, 1.00E-5 Molar): 18.67%
TGI (786-0; 786-0, 5-dose): <100 µM
TGI (786-0; 786-0, 5-dose, listed as D - 835857): > 1.00E-4 Molar
CC50 (786-0; 786-0, 5-dose): < 100 µM
CC50 (786-0; Homo sapiens, 786-0, 786-0, 5-dose): > 100 µM
GI50 (786-0; Homo sapiens, 786-0, 5-dose): 17.1 µM
CC50 (OVCAR-8; Homo sapiens, OVCAR-8, OVCAR-8, 5-dose): > 100 µM
GI50 (OVCAR-8; Homo sapiens, OVCAR-8, 5-dose): 18.2 µM
GI% (OVCAR-8; OVCAR-8, 10 μM): 69%
Growth Percent (OVCAR-8; OVCAR-8, 1.00E-5 Molar): 30.51%
TGI (OVCAR-8; OVCAR-8, 5-dose): <100 µM
TGI (OVCAR-8; OVCAR-8, 5-dose, listed as D - 835857): > 1.00E-4 Molar
CC50 (OVCAR-8; OVCAR-8, 5-dose): < 100 µM
GI50 (SK-MEL-5; Homo sapiens, SK-MEL-5, SK-MEL-5, 5-dose): 5.32 µM
CC50 (SK-MEL-5; Homo sapiens, SK-MEL-5, 5-dose, read-out: LC50 (the source's name)): 57.5 µM
GI% (SK-MEL-5; SK-MEL-5, 10 μM): 124%
Growth Percent (SK-MEL-5; SK-MEL-5, 1.00E-5 Molar): -24.79%
GI50 (SK-MEL-5; SK-MEL-5, 5-dose): 5.3 µM
TGI (SK-MEL-5; SK-MEL-5, 5-dose): 20.3 µM
TGI (SK-MEL-5; SK-MEL-5, 5-dose, listed as D - 835857): 2.03E-5 Molar
GI% (A498; A498, 10 μM): 78%
Growth Percent (A498; A498, 1.00E-5 Molar): 21.64%
TGI (A498; A498, 5-dose): 58.1 µM
TGI (A498; A498, 5-dose, listed as D - 835857): 5.81E-5 Molar
CC50 (A498; A498, 5-dose): < 100 µM
CC50 (A498; Homo sapiens, A498, A498, 5-dose): > 100 µM
GI50 (A498; Homo sapiens, A498, 5-dose): 19.9 µM
GI50 (K-562; [2]): 7.05 µM
CC50 (K-562; [2]): > 100 µM
GI% (K-562; K-562, 10 μM): 82%
Growth Percent (K-562; K-562, 1.00E-5 Molar): 17.64%
TGI (K-562; K-562, 5-dose): <100 µM
TGI (K-562; K-562, 5-dose, listed as D - 835857): > 1.00E-4 Molar
CC50 (K-562; K-562, 5-dose): < 100 µM
GI% (HCT-15; HCT-15, 10 μM): 95%
Growth Percent (HCT-15; HCT-15, 1.00E-5 Molar): 4.66%
GI50 (HCT-15; HCT-15, 5-dose): 5.8 µM
LC50 (HCT-15; HCT-15, 5-dose): < 100 µM
TGI (HCT-15; HCT-15, 5-dose): 28.7 µM
TGI (HCT-15; HCT-15, 5-dose, listed as D - 835857): 2.87E-5 Molar
GI50 (HCT-15; [3]): 5.82 µM
LC50 (HCT-15; [3]): > 100 µM
GI% (A549/ATCC; A549/ATCC, 10 μM): 70%
Growth Percent (A549/ATCC; A549/ATCC, 1.00E-5 Molar): 30.48%
LC50 (A549/ATCC; A549/ATCC, 5-dose): < 100 µM
TGI (A549/ATCC; A549/ATCC, 5-dose): <100 µM
TGI (A549/ATCC; A549/ATCC, 5-dose, listed as D - 835857): > 1.00E-4 Molar
LC50 (A549/ATCC; Homo sapiens, A549, A549/ATCC, 5-dose): > 100 µM
GI50 (A549/ATCC; Homo sapiens, A549/ATCC, 5-dose): 8.31 µM
GI50 (MDA-MB-435; Homo sapiens, MDA-MB-435): 13.9 µM
CC50 (MDA-MB-435; Homo sapiens, MDA-MB-435, MDA-MB-435, 5-dose): > 100 µM
GI% (MDA-MB-435; MDA-MB-435, 10 μM): 77%
Growth Percent (MDA-MB-435; MDA-MB-435, 1.00E-5 Molar): 23.38%
TGI (MDA-MB-435; MDA-MB-435, 5-dose): 87.2 µM
TGI (MDA-MB-435; MDA-MB-435, 5-dose, listed as D - 835857): 8.72E-5 Molar
CC50 (MDA-MB-435; MDA-MB-435, 5-dose): < 100 µM
Selectivity ratio I/XII (hCA XII; KI hCA I / KI hCA XII): 14.1
Selectivity ratio II/XII (hCA XII; KI hCA II / KI hCA XII): 6.79
Ki (hCA XII; mean from 3 assays): 7.1 µM
Ki (hCA I): > 100 µM
Selectivity ratio II/IX (hCA IX; KI hCA II / KI hCA IX): 1.40
Ki (hCA IX; mean from 3 assays): 34.4 µM
GI% (HT29; HT29, 10 μM): 82%
Growth Percent (HT29; HT29, 1.00E-5 Molar): 17.79%
LC50 (50% lethal concentration) (HT29; HT29, 5-dose): < 100 µM
TGI (HT29; HT29, 5-dose): <100 µM
TGI (HT29; HT29, 5-dose, listed as D - 835857): > 1.00E-4 Molar
GI50 (HT29; [4]): 17.9 µM
LC50 (50% lethal concentration) (HT29; [4]): > 100 µM
GI50 (NCI-H522; [5]): 4.35 µM
LC50 (NCI-H522; [5]): > 100 µM
GI% (NCI-H522; NCI-H522, 10 μM): 67%
Growth Percent (NCI-H522; NCI-H522, 1.00E-5 Molar): 33.17%
GI50 (NCI-H522; NCI-H522, 5-dose): 4.4 µM
LC50 (NCI-H522; NCI-H522, 5-dose): < 100 µM
TGI (NCI-H522; NCI-H522, 5-dose): 27.1 µM
TGI (NCI-H522; NCI-H522, 5-dose, listed as D - 835857): 2.71E-5 Molar
GI50 (IGROV1; Homo sapiens, IGROV-1, IGROV1, 5-dose): 19.1 µM
CC50 (IGROV1; Homo sapiens, IGROV-1, IGROV1, 5-dose, read-out: LC50 (the source's name)): > 100 µM
GI% (IGROV1; IGROV1, 10 μM): 69%
Growth Percent (IGROV1; IGROV1, 1.00E-5 Molar): 31.06%
